According to ChEMBL document CHEMBL3352333, “Structural evidence of N6-isopentenyladenosine as a new ligand of farnesyl pyrophosphate synthase” (J Med Chem, 2014):
The source made the active and inactive calls. The calls are words filed in the database; no cut-off is given here.

Columns and labels:
[1] = molecular target: T1, Farnesyl pyrophosphate synthase (Homo sapiens) (UniProt P14324); assay: Binding affinity to FPPS (unknown origin) expressed in Escherichia coli BL21(DEscherichia ) at protein/ligand 1:10 to 1:100 molar ratio by 2D COSY NMR analysis
T1 sequence (whole entry): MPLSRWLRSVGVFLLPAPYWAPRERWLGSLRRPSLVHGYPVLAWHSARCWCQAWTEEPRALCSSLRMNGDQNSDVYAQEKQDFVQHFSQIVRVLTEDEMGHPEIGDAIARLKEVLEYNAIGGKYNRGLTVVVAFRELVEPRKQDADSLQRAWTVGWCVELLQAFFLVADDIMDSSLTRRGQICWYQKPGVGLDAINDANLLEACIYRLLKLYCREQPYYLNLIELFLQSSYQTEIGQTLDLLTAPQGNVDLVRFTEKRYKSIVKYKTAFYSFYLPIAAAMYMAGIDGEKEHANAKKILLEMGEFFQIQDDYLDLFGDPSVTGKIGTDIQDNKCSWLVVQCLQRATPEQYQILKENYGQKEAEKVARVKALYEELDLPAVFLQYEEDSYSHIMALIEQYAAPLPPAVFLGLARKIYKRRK

[2] = molecular target: T2, Farnesyl pyrophosphate synthase (Homo sapiens, UniProt P14324); assay: Binding affinity to FPPS (unknown origin) expressed in Escherichia coli BL21(DEscherichia ) assessed as binding constant of proton H11 of isopentenylic moiety by saturation transfer difference NMR analysis
T2 sequence (P14324 whole entry): T1 sequence (whole entry)

[3] = molecular target: T2, Farnesyl pyrophosphate synthase; assay: Binding affinity to FPPS (unknown origin) expressed in Escherichia coli BL21(DEscherichia ) assessed as binding constant of proton H12 of isopentenylic moiety by saturation transfer difference NMR analysis
[4] = molecular target: T2, Farnesyl pyrophosphate synthase; assay: Binding affinity to FPPS (unknown origin) expressed in Escherichia coli BL21(DEscherichia ) assessed as binding constant of proton H14-H15 of isopentenylic moiety by saturation transfer difference NMR analysis
[5] = molecular target: T1, Farnesyl pyrophosphate synthase (Homo sapiens); assay: Binding affinity to FPPS (unknown origin) expressed in Escherichia coli BL21(DEscherichia ) at protein/ligand 1:10 to 1:100 molar ratio by saturation transfer difference NMR analysis
[6] = molecular target: T2, Farnesyl pyrophosphate synthase; assay: Binding affinity to FPPS (unknown origin) expressed in Escherichia coli BL21(DEscherichia ) assessed as binding constant of proton H2/H8 of purine ring by saturation transfer difference NMR analysis
[7] = molecular target: T1, Farnesyl pyrophosphate synthase (Homo sapiens); assay: Binding affinity to FPPS (unknown origin) expressed in Escherichia coli BL21(DEscherichia ) at protein/ligand 1:10 to 1:100 molar ratio by WaterLOGSY 1D 1H NMR analysis
[8] = molecular target: T1, Farnesyl pyrophosphate synthase (Homo sapiens); assay: Binding affinity to FPPS (unknown origin) expressed in Escherichia coli BL21(DEscherichia ) at protein/ligand 1:10 to 1:100 molar ratio by WaterLOGSY NMR analysis

For CC(C)=CCNc1ncnc2c1ncn2[C@@H]1O[C@H](CO)[C@@H](O)[C@H]1O [RIBOPRINE], the Activity [1] was “Active”, the Kd [2] was 550 µM and the Kd [3] was 2.21 mM. The Kd [4] was 1.21 mM, the Activity [5] was “Active” and the Kd [6] was 2.02 mM. The Activity [7] was “Active” and the Activity [8] was “Active”.
